# Experimental data from article PMC11247499, “2,8-Disubstituted-1,5-naphthyridines as Dual Inhibitors of Plasmodium falciparum Phosphatidylinositol-4-kinase and Hemozoin Formation with In Vivo Efficacy” (Journal of Medicinal Chemistry, 2024).
# Several values for one entry are separate records, joined by “and”; a condition that tells them apart may be missing. Equal entries are not always repeated. Where two headings read alike, the source gives them in different places.
# Legend:
# [1] = test system: Dd2_PI4K_CNV; assay: microbe, parasite or virus in culture; format: cell-based; conditions: Plasmodium falciparum, 72 h, read-out: Dd2_PI4K_CNV IC50
# [2] = test system: P. falciparum NF54 strain; assay: Antiplasmodial activity, parasite lactate dehydrogenase assay, NF54; format: cell-based, Plasmodium falciparum; conditions: Plasmodium falciparum, NF54, 72 h, parasite lactate dehydrogenase assay over 72 h; read-out: Pf IC50 ± SD NF54
# [3] = Solubility, miniaturized shake flask method
# [4] = test system: Chinese Hamster Ovary (CHO) cell line; assay: cells; format: cell-based; conditions: Cricetulus griseus, CHO, read-out: CHO IC50
# [5] = molecular target: PvPI4K (Plasmodium vivax, UniProt A5KB26); assay: biochemical
# PvPI4K, sequence (A5KB26 entry or part of it): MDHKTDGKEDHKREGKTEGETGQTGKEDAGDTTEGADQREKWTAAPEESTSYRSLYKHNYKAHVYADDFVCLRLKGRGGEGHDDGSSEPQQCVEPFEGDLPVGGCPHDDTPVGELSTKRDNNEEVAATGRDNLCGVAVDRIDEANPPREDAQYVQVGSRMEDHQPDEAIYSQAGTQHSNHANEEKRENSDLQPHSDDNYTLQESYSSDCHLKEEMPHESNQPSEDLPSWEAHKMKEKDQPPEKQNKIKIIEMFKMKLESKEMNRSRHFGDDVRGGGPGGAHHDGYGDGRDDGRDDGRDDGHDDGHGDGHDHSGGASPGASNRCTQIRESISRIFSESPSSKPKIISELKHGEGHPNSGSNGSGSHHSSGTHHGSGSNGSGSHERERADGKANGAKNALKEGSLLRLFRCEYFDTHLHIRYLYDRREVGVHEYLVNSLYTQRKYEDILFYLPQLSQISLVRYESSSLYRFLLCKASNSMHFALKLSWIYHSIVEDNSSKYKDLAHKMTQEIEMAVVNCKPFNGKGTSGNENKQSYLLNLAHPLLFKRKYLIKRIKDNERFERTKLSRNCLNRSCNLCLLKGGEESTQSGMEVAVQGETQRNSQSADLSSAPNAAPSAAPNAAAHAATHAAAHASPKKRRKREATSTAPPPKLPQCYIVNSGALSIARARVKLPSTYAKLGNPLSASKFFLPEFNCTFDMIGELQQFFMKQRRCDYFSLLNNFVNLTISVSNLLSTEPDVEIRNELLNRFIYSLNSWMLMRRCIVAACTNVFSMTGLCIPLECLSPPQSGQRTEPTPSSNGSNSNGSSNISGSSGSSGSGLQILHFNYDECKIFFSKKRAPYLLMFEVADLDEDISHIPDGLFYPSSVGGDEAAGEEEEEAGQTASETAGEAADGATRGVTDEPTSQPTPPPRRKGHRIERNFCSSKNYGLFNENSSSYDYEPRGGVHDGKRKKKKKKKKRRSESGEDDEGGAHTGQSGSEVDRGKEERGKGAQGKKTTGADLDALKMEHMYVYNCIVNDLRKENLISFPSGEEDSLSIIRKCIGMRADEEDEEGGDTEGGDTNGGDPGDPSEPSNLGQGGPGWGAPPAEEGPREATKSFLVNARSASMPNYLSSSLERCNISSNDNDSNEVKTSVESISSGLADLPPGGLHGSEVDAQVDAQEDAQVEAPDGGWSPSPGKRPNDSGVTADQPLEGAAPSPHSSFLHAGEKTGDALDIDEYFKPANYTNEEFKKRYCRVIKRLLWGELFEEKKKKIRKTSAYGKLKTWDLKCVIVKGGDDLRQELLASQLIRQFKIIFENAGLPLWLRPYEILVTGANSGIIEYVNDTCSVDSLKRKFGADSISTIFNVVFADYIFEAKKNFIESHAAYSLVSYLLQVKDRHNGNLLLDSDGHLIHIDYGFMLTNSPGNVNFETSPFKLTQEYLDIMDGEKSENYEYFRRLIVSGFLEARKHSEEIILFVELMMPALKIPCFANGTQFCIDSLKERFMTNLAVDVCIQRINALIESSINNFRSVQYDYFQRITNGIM
# [6] = test system: multidrug-resistant strain, K1; assay: Antiplasmodial activity, parasite lactate dehydrogenase assay, K1; format: cell-based, Plasmodium falciparum; conditions: Plasmodium falciparum, K1, 72 h, parasite lactate dehydrogenase assay over 72 h; read-out: Pf IC50 ± SD K1
# [7] = test system: β-hematin (βH) formation; assay: NP-40 mediated cell-free β-hematin assay; conditions: read-out: β-hematin IC50
# [8] = test system: Dd2; assay: microbe, parasite or virus in culture; format: cell-based; conditions: Plasmodium falciparum, DD2, 72 h, read-out: Dd2 IC50 ± SD
# [9] = test system: P. falciparum male gametes; assay: microbe, parasite or virus in culture; conditions: Plasmodium falciparum, 48 h, read-out: inhibition of exflagellation
# [10] = In vitro microsomal stability, human; format: in vitro ADME; conditions: pooled human liver microsomes, pH 7.4, read-out: microsomal CLint, app human
# [11] = molecular target: HuPI4Kβ (Homo sapiens, UniProt Q9UBF8); assay: Human kinase inhibition, HuPI4Kβ; conditions: read-out: HuPI4Kβ, IC50
# [12] = In vitro microsomal stability, mouse; format: in vitro ADME; conditions: mouse liver microsomes, pH 7.4, read-out: microsomal CLint, app mouse
# [13] = In vitro microsomal stability, rat; format: in vitro ADME; conditions: rat liver microsomes, pH 7.4, read-out: microsomal CLint, app rat
# [14] = LogD shake-flask; format: physicochemical; conditions: n-octanol/phosphate buffer (1:1), phosphate buffer (pH 7.4) / n-octanol
# [15] = molecular target: HuPI3Kα (Homo sapiens, UniProt P42336); assay: Human kinase inhibition, HuPI3Kα; conditions: read-out: HuPI3Kα, IC50
# HuPI3Kα, sequence (P42336 whole entry): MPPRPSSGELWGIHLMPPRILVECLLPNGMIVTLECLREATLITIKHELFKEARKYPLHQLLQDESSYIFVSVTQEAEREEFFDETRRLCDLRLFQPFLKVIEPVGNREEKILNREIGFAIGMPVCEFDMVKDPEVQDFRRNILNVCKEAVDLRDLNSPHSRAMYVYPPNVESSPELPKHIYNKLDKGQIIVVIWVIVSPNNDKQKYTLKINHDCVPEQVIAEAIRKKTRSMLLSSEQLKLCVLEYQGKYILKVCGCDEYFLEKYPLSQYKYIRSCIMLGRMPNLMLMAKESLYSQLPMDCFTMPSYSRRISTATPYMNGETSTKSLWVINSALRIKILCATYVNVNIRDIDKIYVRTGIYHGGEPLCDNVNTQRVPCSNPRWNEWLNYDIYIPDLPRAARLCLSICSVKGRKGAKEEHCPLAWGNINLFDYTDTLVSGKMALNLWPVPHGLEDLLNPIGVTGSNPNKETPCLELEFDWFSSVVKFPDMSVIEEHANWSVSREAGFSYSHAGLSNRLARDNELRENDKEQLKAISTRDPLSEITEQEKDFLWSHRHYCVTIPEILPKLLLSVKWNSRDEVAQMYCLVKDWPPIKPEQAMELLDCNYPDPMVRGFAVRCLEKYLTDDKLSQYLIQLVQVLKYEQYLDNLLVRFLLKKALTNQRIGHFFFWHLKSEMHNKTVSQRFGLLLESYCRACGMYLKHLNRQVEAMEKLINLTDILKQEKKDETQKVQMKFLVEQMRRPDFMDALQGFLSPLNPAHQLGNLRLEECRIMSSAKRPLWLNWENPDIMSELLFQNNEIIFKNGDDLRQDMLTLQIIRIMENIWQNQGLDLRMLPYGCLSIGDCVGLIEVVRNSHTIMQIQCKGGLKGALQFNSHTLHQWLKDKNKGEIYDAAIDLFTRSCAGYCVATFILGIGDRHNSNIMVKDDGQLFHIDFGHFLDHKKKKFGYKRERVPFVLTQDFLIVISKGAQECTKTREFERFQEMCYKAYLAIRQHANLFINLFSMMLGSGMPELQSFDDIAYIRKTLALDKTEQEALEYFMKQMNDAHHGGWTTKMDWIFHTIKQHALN
# HuPI3Kα, sequence (P27986 whole entry partner): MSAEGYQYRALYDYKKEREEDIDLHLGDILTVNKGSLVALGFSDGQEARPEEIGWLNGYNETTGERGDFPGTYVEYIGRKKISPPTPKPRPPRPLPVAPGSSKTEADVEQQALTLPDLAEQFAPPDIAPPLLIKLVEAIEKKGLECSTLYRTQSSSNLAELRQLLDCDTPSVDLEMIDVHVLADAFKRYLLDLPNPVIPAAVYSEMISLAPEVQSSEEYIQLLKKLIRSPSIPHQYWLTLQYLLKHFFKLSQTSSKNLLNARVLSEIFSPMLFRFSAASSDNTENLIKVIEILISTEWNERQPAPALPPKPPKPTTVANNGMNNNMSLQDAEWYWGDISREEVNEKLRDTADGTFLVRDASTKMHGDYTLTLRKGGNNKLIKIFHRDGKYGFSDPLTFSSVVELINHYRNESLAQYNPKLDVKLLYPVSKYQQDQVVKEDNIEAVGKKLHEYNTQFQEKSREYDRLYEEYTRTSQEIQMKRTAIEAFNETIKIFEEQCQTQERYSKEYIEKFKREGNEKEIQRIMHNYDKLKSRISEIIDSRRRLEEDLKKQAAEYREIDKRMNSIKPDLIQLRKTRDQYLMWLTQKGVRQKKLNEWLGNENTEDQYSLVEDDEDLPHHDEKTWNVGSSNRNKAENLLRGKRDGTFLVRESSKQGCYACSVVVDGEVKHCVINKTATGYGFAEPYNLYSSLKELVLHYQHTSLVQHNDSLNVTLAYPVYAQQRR
# [16] = molecular target: HuMAP4K4 (Homo sapiens, UniProt O95819); assay: Human kinase inhibition, HuMAP4K4; conditions: read-out: HuMAP4K4, IC50
# HuMAP4K4, sequence (O95819 whole entry): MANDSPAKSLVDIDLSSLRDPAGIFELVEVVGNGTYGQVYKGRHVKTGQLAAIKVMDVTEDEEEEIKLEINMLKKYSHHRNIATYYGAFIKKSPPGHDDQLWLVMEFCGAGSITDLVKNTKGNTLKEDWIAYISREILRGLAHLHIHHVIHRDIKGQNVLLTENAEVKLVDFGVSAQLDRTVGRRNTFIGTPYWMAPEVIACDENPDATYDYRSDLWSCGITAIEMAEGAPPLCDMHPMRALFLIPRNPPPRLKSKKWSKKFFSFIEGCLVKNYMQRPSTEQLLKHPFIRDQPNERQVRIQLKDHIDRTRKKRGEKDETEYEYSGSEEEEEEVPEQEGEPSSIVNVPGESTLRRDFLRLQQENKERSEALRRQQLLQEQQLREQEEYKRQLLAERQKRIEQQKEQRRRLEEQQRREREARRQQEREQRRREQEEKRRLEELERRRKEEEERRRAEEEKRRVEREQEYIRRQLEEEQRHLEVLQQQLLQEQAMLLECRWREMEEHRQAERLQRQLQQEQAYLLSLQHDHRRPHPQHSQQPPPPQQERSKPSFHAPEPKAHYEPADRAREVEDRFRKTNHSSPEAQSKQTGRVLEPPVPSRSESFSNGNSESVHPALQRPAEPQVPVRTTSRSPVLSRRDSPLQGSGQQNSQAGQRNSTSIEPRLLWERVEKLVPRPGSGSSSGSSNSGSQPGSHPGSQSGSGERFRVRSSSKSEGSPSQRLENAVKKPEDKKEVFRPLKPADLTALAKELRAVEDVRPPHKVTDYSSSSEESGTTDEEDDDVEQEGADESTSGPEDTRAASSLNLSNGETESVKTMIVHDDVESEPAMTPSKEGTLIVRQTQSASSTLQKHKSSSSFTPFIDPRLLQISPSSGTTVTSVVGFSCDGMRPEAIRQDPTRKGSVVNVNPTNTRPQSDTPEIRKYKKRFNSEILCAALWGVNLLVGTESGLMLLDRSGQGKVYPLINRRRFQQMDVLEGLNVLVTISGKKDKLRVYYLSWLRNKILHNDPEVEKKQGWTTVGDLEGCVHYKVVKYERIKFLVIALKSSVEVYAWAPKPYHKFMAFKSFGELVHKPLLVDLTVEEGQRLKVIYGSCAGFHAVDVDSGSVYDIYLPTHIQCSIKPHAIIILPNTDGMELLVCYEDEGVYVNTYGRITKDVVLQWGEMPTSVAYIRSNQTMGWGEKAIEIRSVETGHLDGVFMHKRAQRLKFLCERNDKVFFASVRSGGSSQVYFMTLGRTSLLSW
# [17] = test system: P. falciparum PI4K conditional knockdown line; assay: microbe, parasite or virus in culture; format: cell-based, Plasmodium falciparum; conditions: for IC50: Plasmodium falciparum
# [18] = Mouse pharmacokinetic studies; conditions: male, BalbC; for Vd at 24 h / half-life at 24 h / bioavailability at 24 h: in vivo; for Vd at 24 h / half-life at 24 h / in vivo mouse CLb: iv, 2 mg/kg; for bioavailability at 24 h: po
# [19] = Plasma protein binding, human; format: in vitro ADME; conditions: pooled human plasma, read-out: PPB fu, human
# [20] = molecular target: cytochrome P450 3A4 (Homo sapiens, UniProt P08684); assay: Cytochrome P450 inhibition, 3A4; format: in vitro ADME
# cytochrome P450 3A4, sequence (P08684 whole entry): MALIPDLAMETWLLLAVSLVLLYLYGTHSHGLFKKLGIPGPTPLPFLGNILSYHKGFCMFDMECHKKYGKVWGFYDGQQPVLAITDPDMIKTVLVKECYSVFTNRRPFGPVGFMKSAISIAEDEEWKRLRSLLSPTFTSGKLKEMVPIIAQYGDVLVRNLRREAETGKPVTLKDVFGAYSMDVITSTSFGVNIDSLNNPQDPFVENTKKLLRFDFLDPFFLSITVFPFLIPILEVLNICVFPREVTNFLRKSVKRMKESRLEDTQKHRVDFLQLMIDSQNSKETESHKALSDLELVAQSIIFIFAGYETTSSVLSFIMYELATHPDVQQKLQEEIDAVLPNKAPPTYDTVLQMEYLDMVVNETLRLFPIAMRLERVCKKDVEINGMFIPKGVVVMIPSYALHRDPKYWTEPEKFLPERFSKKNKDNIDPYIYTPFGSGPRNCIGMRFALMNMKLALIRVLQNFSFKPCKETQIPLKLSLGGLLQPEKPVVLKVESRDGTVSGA
# [21] = molecular target: cytochrome P450 2C9 (Homo sapiens, UniProt P11712); assay: Cytochrome P450 inhibition, 2C9; format: in vitro ADME
# [22] = Caco-2 permeability; format: in vitro ADME; conditions: human
# [23] = molecular target: HuMINK1 (Homo sapiens, UniProt Q8N4C8); assay: Human kinase inhibition, HuMINK1; conditions: read-out: HuMINK1, IC50
# [24] = molecular target: cytochrome P450 2C19 (Homo sapiens, UniProt P33261); assay: Cytochrome P450 inhibition, 2C19; format: in vitro ADME
# [25] = Plasma protein binding, mouse; format: in vitro ADME; conditions: read-out: PPB fu, mouse
# [26] = physchem
# [27] = test system: zebrafish embryos; assay: in vivo
# [28] = in vivo; conditions: zebrafish, in vivo
# [29] = purified recombinant PvPI4K, 10 μM ATP, ADP-Glo, mean of N ≥ 2, read-out: PvPI4K IC50 ± SD
# [30] = cell-free NP-40 detergent-mediated assay, n = 2
compound,measurement,setting,value
"O[C@H]1CNCC[C@@H]1Nc1ccnc2ccc(-c3ccc(C(F)(F)F)nc3)nc12 (racemic) [Compound 28, rac-trans-4-[[6-[6-(Trifluoromethyl)pyridin-3-yl]-1,5-naphthyridin-4-yl]amino]piperidin-3-ol]",IC50,[1],182 ± 44 nM
same,IC50,[2],168 ± 55 nM
same,solubility at 20 h,[3]; aqueous solution,200 µM
same,IC50,[4]; MTT assay over 48h,> 50000 nM
same,IC50,[5]; [29],967 ± 163 nM
same,IC50,[6],624 ± 76 nM
same,IC50,[7]; [30],95000 ± 16000 nM
same,IC50,[8],212 ± 127 nM
NS(=O)(=O)c1cccc(-c2ccc3nccc(-c4ccnc(C(F)(F)F)c4)c3n2)c1 [Compound 1],IC50,[4]; 48 h,6000 nM
same,inhibition at 2 µM,[9],60%
same,IC50,[7],> 500000 nM
"FC(F)(F)c1ccc(-c2ccc3nccc(N[C@@H]4CCNC4)c3n2)cn1 [Compound 16, N-[(3R)-Pyrrolidin-3-yl]-6-[6-(trifluoromethyl)pyridin-3-yl]-1,5-naphthyridin-4-amine]",CLint scaled at 1 µM,[10],< 13 mL/min/kg
same,IC50,[11],> 10000 nM
same,IC50,[2],86 ± 16 nM
same,CLint scaled at 1 µM,[12],< 467 mL/min/kg
same,solubility at 20 h,"[3]; PBS, pH 6.5",195 µM
same,solubility at 20 h,[3]; aqueous solution,200 µM
same,IC50,[4]; MTT assay over 48h,> 50000 nM
same,CLint scaled at 1 µM,[13],< 21 mL/min/kg
same,logD at 3 h,[14],0.96
same,IC50,[15],8900 nM
same,IC50,[16],> 10000 nM
same,IC50,[5]; [29],66 ± 21 nM
same,IC50,"[17]; 72 h, read-out: ABS IC50 for PfPI4K cKD, N=1, +aTc, experiment N=1, +aTc (500 nM, control conditions), 72 hours",71 nM
same,IC50,"[17]; 72 h, read-out: ABS IC50 for PfPI4K cKD, N=1, no aTc, experiment N=1, no aTc (PI4K knockdown), 72 hours",72 nM
same,IC50,"[17]; 72 h, read-out: ABS IC50 for PfPI4K cKD, N=2, +aTc, experiment N=2, +aTc (500 nM, control conditions), 72 hours",118 nM
same,IC50,"[17]; 72 h, read-out: ABS IC50 for PfPI4K cKD, N=2, no aTc, experiment N=2, no aTc (PI4K knockdown), 72 hours",118 nM
same,IC50,"[17]; 72 h, read-out: ABS IC50 for PfPI4K cKD, N=3, +aTc, experiment N=3, +aTc (500 nM, control conditions), 72 hours",63 nM
same,IC50,"[17]; 72 h, read-out: ABS IC50 for PfPI4K cKD, N=3, no aTc, experiment N=3, no aTc (PI4K knockdown), 72 hours",72 nM
same,IC50,"[17]; read-out: ABS IC50 for PfPI4K cKD, Mean + SD, +aTc, mean of N=3, +aTc (control conditions)",84 ± 30 nM
same,IC50,"[17]; read-out: ABS IC50 for PfPI4K cKD, Mean + SD, no aTc, mean of N=3, no aTc (PI4K knockdown)",88 ± 27 nM
same,"ABS IC50 for PfPI4K cKD, N=1, fold shift","[17]; experiment N=1, +aTc vs no aTc",0.98 fold
same,"ABS IC50 for PfPI4K cKD, N=2, fold shift","[17]; experiment N=2, +aTc vs no aTc",1.00 fold
same,"ABS IC50 for PfPI4K cKD, N=3, fold shift","[17]; experiment N=3, +aTc vs no aTc",0.88 fold
same,"ABS IC50 for PfPI4K cKD, mean fold shift (fold decrease in IC50 on knockdown)","[17]; mean, +aTc vs no aTc",0.95 fold
same,in vivo mouse CLu,[18],76 mL/min/kg
same,Vd at 24 h,[18],3.1 L/kg
same,half-life at 24 h,[18],2.7 h
same,bioavailability at 24 h,[18],96%
same,in vivo mouse CLb,[18],13.70 mL/min/kg
same,"fraction unbound at 5 h, 5 µM",[19],0.18
same,IC50,[20],> 20000 nM
same,IC50,[21],> 20000 nM
same,efflux ratio,[22],13
same,Papp A→B,[22]; A > B,2.6 ×10⁻⁶ cm/s
same,IC50,[23],> 10000 nM
same,IC50,[24],> 20000 nM
same,IC50,[7]; [30],32000 nM and < 60000 nM
"CN1CCC(Nc2ccnc3ccc(-c4ccc(C(F)(F)F)nc4)nc23)CC1 [Compound 21, N-(1-Methylpiperidin-4-yl)-6-[6-(trifluoromethyl)pyridin-3-yl]-1,5-naphthyridin-4-amine]",CLint scaled at 1 µM,[10],< 10 mL/min/kg
same,IC50,[2],52 ± 14 nM
same,CLint scaled at 1 µM,[12],< 46 mL/min/kg
same,solubility at 20 h,"[3]; PBS, pH 6.5",160 µM
same,solubility at 20 h,[3]; aqueous solution,160 µM
same,IC50,[4]; MTT assay over 48h,> 50000 nM
same,CLint scaled at 1 µM,[13],< 21 mL/min/kg
same,logD at 3 h,[14],1.86
same,IC50,[5]; [29],175 ± 82 nM
same,in vivo mouse CLu,[18],22 mL/min/kg
same,Vd at 24 h,[18],12 L/kg
same,half-life at 24 h,[18],16 h
same,bioavailability at 24 h,[18],99%
same,in vivo mouse CLb,[18],9.90 mL/min/kg
same,"fraction unbound at 5 h, 5 µM",[19],0.5
same,"fraction unbound at 5 h, 5 µM",[25],0.3
same,IC50,[6],162 ± 4 nM
same,IC50,[7]; [30],35000 nM and < 60000 nM
"FC(F)CN1CCC(Nc2ccnc3ccc(-c4ccc(C(F)(F)F)nc4)nc23)CC1 [Compound 23, N-[1-(2,2-Difluoroethyl)piperidin-4-yl]-6-[6-(trifluoromethyl)pyridin-3-yl]-1,5-naphthyridin-4-amine]",IC50,[2],880 ± 34 nM
same,IC50,[5],53 ± 28 nM
same,solubility,[26],20 µM
same,IC50,[7]; [30],30000 nM and < 60000 nM
"CN1CCC(Nc2ccnc3ccc(-c4ccc(C#N)nc4)nc23)CC1 [Compound 32, 5-[8-[(1-Methylpiperidin-4-yl)amino]-1,5-naphthyridin-2-yl]pyridine-2-carbonitrile]",IC50,[2],160 ± 40 nM
same,solubility at 20 h,[3]; aqueous solution,200 µM
same,IC50,[4]; MTT assay over 48h,> 50000 nM
same,IC50,[5]; [29],676 ± 23 nM
same,IC50,[6],730 ± 53 nM
same,IC50,[7]; [30],51000 ± 2000 nM
"CN1CCC(Nc2ccnc3ccc(-c4ccc(OCCCO)nc4)nc23)CC1 [Compound 35, 3-[5-[8-[(1-Methylpiperidin-4-yl)amino]-1,5-naphthyridin-2-yl]pyridin-2-yl]oxypropan-1-ol]",IC50,[2],203 ± 6 nM
same,solubility at 20 h,[3]; aqueous solution,200 µM
same,IC50,[4]; MTT assay over 48h,> 50000 nM
same,IC50,[5]; [29],19 ± 12 nM
same,IC50,[6],462 ± 52 nM
same,IC50,[7]; [30],> 200000 nM
"CN1CCC(Nc2cc(N)nc3ccc(-c4ccc(C(F)(F)F)nc4)nc23)CC1 [Compound 36, 4-N-(1-Methylpiperidin-4-yl)-6-[6-(trifluoromethyl)pyridin-3-yl]-1,5-naphthyridine-2,4-diamine]",IC50,[2],40 ± 11 nM
same,solubility at 20 h,[3]; aqueous solution,180 µM
same,IC50,[4]; MTT assay over 48h,26000 nM
same,IC50,[5]; [29],9400 ± 849 nM
same,IC50,[6],192 ± 7 nM
same,IC50,[7]; [30],35000 nM and < 60000 nM
"CCN(CC)c1ccc(C=O)cc1 [DEAB, Diethylaminobenzaldehyde]",teratogen,[27]; classification,yes
same,TI (teratogenic index),"[27]; ratio between LC50 and AC50, >3 classifies as teratogen",4.6
same,AC50,[28]; 50% larvae population show a teratogenic phenotype,1000 nM
same,LC50 at 96 h,[28]; concentration at which 50% of larvae die at 96 h post fertilization,4600 nM
